Data: US20120088791A1, “AMIDOBIPIPERIDINECARBOXYLATE M1 ALLOSTERIC AGONISTS, ANALOGS AND DERIVATIVES THEREOF, AND METHODS OF MAKING AND USING SAME” (VANDERBILT UNIVERSITY, priority 2009, published 2012)

Experiments:
hM3 = target: T1, hM3 (Homo sapiens, UniProt P20309); test: Calcium mobilization assay, CHO cells stably expressing hM3; format: cell-based; conditions: selectivity for M1; read-out: potency (EC50) versus M3
T1 construct: expressed in transfected cells; host or cells: CHO cells
Description: (§1) Cell culture and transfections. Chinese hamster ovary (CHO-K1) cells stably expressing rat (r)M1 were purchased from the American Type Culture Collection and cultured according to their indicated protocol. CHO cells stably expressing human (h)M2, hM3, and hM5 were used and described previously (Levey et al., 1991); rM4 cDNA, provided by T. I. Bonner (National Institutes of Health, Bethesda, Md.), was used to stably transfect CHO-K1 cells purchased from the American Type Culture Collection using Lipofectamine2000. To make stable hM2 and rM4 cell lines for use in calcium mobilization assays, these cells also were stably transfected with a chimeric G-protein (Gqi5) using Lipofectamine 2000. M1, hM3, and hM5 cells were grown in Ham's F-12 medium containing 10% heat-inactivated fetal bovine serum (FBS), 20 mM HEPES, and 50 μg/ml G418 sulfate. hM2-Gqi5 cells were grown in the same medium also containing 500 μg/ml Hygromycin B. Stable rM4-Gqi5 cells were grown in DMEM containing 10% heat-inactivated FBS, 20 mM HEPES, 400 μg/ml G418 sulfate, and 500 μg/ml Hygromycin B. The rat M1 Y381A orthosteric mutant receptor cDNA was generated using the Quik-Change site-directed mutagenesis kit (Stratagene) and verified by sequencing. […]
(§2) Calcium mobilization assays. […] Calcium flux was measured over time as an increase in fluorescence (fold over basal) using the Flexstation plate reader (Molecular Devices).

hM5 = target: T2, hM5 (Homo sapiens, UniProt P08912); test: Calcium mobilization assay, CHO cells stably expressing hM5; format: cell-based; conditions: selectivity for M1; read-out: potency (EC50) versus M5
T2 construct: expressed in transfected cells; host or cells: CHO cells
T2 sequence (P08912 1-532): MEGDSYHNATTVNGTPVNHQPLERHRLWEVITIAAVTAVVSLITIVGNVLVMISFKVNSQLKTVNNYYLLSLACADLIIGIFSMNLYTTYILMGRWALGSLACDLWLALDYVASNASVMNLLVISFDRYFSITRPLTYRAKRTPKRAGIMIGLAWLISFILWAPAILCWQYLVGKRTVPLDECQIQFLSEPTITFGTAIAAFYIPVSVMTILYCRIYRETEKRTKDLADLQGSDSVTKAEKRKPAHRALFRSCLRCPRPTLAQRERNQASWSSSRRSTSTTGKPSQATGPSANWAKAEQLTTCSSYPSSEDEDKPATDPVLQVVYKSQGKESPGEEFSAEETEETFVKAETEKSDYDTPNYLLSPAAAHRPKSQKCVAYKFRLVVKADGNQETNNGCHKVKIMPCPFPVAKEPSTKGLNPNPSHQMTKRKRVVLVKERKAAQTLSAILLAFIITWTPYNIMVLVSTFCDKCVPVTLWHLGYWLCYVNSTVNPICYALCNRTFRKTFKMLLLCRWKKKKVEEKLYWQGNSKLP
Description: as §1, §2

rM1 = target: T3, rM1 (Rattus norvegicus, UniProt P08482); test: Calcium mobilization assay, CHO-K1 cells stably expressing rM1; format: cell-based; conditions: Table 1, R-enantiomers; for Emax: RM1, read-out: Efficacy (% Max ACh); for EC50: agonist-evoked calcium flux, read-out: Potency (EC50)
T3 construct: host or cells: CHO-K1
T3 sequence (P08482 1-460): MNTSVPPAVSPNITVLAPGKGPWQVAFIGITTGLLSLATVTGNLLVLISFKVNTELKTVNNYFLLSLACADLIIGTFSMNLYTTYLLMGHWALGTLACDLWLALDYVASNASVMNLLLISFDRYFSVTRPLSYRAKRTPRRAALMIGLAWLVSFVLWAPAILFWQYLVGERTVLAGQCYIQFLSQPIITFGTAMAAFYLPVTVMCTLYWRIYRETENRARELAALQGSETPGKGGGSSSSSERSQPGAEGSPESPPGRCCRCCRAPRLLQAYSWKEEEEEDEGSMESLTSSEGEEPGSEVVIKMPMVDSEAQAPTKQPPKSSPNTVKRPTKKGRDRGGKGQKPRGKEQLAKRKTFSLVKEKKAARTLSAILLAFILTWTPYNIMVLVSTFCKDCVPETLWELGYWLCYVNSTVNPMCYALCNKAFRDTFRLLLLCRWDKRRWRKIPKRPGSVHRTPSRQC
Description: Cell culture and transfections. Chinese hamster ovary (CHO-K1) cells stably expressing rat (r)M1 were purchased from the American Type Culture Collection and cultured according to their indicated protocol. CHO cells stably expressing human (h)M2, hM3, and hM5 were used and described previously (Levey et al., 1991); rM4 cDNA, provided by T. I. Bonner (National Institutes of Health, Bethesda, Md.), was used to stably transfect CHO-K1 cells purchased from the American Type Culture Collection using Lipofectamine2000. To make stable hM2 and rM4 cell lines for use in calcium mobilization assays, these cells also were stably transfected with a chimeric G-protein (Gqi5) using Lipofectamine 2000. M1, hM3, and hM5 cells were grown in Ham's F-12 medium containing 10% heat-inactivated fetal bovine serum (FBS), 20 mM HEPES, and 50 μg/ml G418 sulfate. hM2-Gqi5 cells were grown in the same medium also containing 500 μg/ml Hygromycin B. Stable rM4-Gqi5 cells were grown in DMEM containing 10% heat-inactivated FBS, 20 mM HEPES, 400 μg/ml G418 sulfate, and 500 μg/ml Hygromycin B. The rat M1 Y381A orthosteric mutant receptor cDNA was generated using the Quik-Change site-directed mutagenesis kit (Stratagene) and verified by sequencing. CHO-K1 cells were stably transfected with this cDNA using Lipofectamine2000 and screened for expression based on calcium mobilization in response to the allosteric M1 agonist N-desmethylclozapine.
Calcium mobilization assays. For measurement of agonist-evoked increases in intracellular calcium, CHO-K1 cells stably expressing muscarinic receptors were plated in 100 μl of growth medium at 5×10^4 (rM1, hM3, and hM5) or 6×10^4 cells per well (rM1 Y381A, hM2, and rM4) in Costar 96-well black-walled, tissue culture (TC)-treated, clear-bottom plates (Fisher). Cells were incubated overnight at 37° C. and 5% CO2. The next day, medium was removed from the cells, and they were incubated with 50 μl of 2 μM Fluo-4 AM diluted in assay buffer [HBSS (Invitrogen) supplemented with 20 mM HEPES and 2.5 mM probenecid, pH 7.4] for 1 h at 37° C. Dye was removed and replaced with 45 μl of assay buffer. Agonists were diluted into assay buffer at a 2× concentration and applied to cells using the automated system at 19 s into the 130 s protocol. Calcium flux was measured over time as an increase in fluorescence (fold over basal) using the Flexstation plate reader (Molecular Devices).

rM4 = target: T4, rM4 (Rattus norvegicus, UniProt P08485); test: Calcium mobilization assay, CHO-K1 cells stably expressing rM4-Gqi5; format: cell-based; conditions: selectivity for M1; read-out: potency (EC50) versus M4
T4 construct: expressed in transfected cells; host or cells: CHO-K1 cells, also stably transfected with chimeric G-protein Gqi5
T4 sequence (P08485 1-478): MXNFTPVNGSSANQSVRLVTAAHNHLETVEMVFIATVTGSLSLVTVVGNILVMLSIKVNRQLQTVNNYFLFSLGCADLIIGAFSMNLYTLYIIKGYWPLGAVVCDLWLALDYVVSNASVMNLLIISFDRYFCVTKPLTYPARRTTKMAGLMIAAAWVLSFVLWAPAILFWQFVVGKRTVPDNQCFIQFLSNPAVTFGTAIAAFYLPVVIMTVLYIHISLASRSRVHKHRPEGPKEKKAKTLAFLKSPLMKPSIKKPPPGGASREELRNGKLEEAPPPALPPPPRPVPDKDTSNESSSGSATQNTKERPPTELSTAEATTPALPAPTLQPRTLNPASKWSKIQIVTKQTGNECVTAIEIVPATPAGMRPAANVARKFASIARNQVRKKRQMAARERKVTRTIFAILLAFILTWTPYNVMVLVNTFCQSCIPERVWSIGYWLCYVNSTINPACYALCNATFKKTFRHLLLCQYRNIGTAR
Description: as §1, §2

hM2 = target: T5, hM2 (Homo sapiens, UniProt P08172); test: Calcium mobilization assay, CHO cells stably expressing hM2-Gqi5; format: cell-based; conditions: selectivity for M1; read-out: potency (EC50) versus M2
T5 construct: expressed in transfected cells; host or cells: CHO cells, also stably transfected with chimeric G-protein Gqi5
T5 sequence (P08172 1-466): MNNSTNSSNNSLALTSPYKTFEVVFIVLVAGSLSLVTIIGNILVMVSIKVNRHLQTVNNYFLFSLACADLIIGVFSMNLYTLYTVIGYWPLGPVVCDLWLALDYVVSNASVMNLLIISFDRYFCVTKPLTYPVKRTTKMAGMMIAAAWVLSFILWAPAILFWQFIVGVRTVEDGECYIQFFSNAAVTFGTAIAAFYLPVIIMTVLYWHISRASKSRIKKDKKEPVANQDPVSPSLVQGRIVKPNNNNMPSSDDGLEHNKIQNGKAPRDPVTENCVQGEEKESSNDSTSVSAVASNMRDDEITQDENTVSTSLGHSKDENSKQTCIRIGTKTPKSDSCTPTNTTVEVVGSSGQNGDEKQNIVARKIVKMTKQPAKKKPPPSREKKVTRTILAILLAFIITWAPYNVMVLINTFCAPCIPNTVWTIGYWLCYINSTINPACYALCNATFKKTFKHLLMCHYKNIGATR
Description: as §1, §2

[1] = test system: Aβ 1-40 and 1-42 production; conditions: in vitro; cited from earlier work
[2] = multiple preclinical models; cited from earlier work
[3] = preclinical and clinical studies; cited from earlier work

T1 sequence (P20309 whole entry): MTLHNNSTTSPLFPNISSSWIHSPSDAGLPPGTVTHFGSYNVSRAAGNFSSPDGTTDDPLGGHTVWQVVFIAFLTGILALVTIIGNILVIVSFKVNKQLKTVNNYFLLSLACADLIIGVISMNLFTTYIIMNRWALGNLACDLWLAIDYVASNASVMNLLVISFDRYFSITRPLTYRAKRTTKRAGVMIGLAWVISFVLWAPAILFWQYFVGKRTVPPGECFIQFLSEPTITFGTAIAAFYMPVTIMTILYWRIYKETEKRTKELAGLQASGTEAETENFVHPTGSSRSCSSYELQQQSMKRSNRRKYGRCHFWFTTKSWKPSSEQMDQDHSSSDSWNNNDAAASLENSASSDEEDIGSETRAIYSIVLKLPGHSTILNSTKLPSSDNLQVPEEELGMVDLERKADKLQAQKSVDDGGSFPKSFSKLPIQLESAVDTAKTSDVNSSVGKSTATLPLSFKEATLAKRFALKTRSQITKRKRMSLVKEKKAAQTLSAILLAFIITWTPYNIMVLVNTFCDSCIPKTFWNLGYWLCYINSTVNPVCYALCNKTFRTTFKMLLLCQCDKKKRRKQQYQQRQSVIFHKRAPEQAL

SMILES | EC50 (hM3) | EC50 (hM5) | Emax (rM1) | EC50 (rM1) | EC50 (rM4) | EC50 (hM2) | effect on Aβ 1-40 and 1-42 production [1] | efficacy in preclinical models of schizophrenia [2] | efficacy with regard to positive, negative and cognitive symptoms [3]
CCOC(=O)N1CCC(N2CCC[C@@H](NC(=O)c3ccccc3C)C2)CC1 [(R)-ethyl 3-(2-methylbenzamido)-1,4′-bipiperidine-1′-carboxylate] | > 50 µM | > 50 µM | 96% | 88 nM | > 50 µM | > 50 µM | – | – | –
CCOC(=O)N1CCC(N2CCC[C@@H](NC(=O)c3ccccc3)C2)CC1 [(R)-ethyl 3-benzamido-1,4′-bipiperidine-1′-carboxylate] | > 50 µM | > 50 µM | 91% | 127 nM | > 50 µM | > 50 µM | – | – | –
Cc1ccccc1CN1CCC(N2CCC(n3c(=O)[nH]c4ccccc43)CC2)CC1 [TBPB] | – | – | – | – | – | – | decrease Aβ 1-40 and 1-42 production in vitro | demonstrated efficacy | –
CCCCCCOc1nsnc1C1=CCCN(C)C1 [Xanomeline] | – | – | – | – | – | – | – | – | proved efficacious
